Assay [1] concerns the target Potassium/sodium hyperpolarization-activated cyclic nucleotide-gated channel 1 (Mus musculus, UniProt O88704). As to the kind of experiment: Inhibition of mouse HCN1 expressed in HEK293 cells assessed as reduction in hyperpolarization activated current at holding potential of -80 mV by patch clamp assay. In kind it is cell-based. On the technique in general: In patch-clamp work, channel activity is measured electrically.

A short description of assay [2]: Selectivity ratio of EC50 for human HCN1 to EC50 for mouse HCN4.
The nature of assay [3]: Selectivity ratio of EC50 for human HCN2 to EC50 for mouse HCN4.
In assay [4] the test system is Cardiac muscle of left ventricle. Description: Effect on cardiac electrophysiological profile in Mongrel perfused dog heart left ventricular muscle stimulated at basic cycle length of 1000 milliseconds assessed as conduction time at 1 uM measured after 25 mins by glass capillary microelectrode based electrophysiology assay (reference value: 4.8 +/- 0.60 milliseconds). In kind it is functional, Canis lupus familiaris.

The test system is the same in assay [5]. Description: Effect on cardiac electrophysiological profile in Mongrel perfused dog heart left ventricular muscle stimulated at basic cycle length of 1000 milliseconds assessed as maximum diastolic potential at 10 uM measured after 25 mins by glass capillary microelectrode based electrophysiology assay (reference value: -83.8 +/- 2.28 mV). In kind it is functional, Canis lupus familiaris.

Assay [6] has the same test system. Description: Effect on cardiac electrophysiological profile in Mongrel perfused dog heart left ventricular muscle stimulated at basic cycle length of 1000 milliseconds assessed as action potential amplitude at 1 uM measured after 25 mins by glass capillary microelectrode based electrophysiology assay (reference value: 104.1 +/- 2.7 mV). The assay is classed as functional, Canis lupus familiaris.

Assay [7] shares this test system. Description: Effect on cardiac electrophysiological profile in Mongrel perfused dog heart left ventricular muscle stimulated at basic cycle length of 1000 milliseconds assessed as action potential amplitude at 10 uM measured after 25 mins by glass capillary microelectrode based electrophysiology assay (reference value: 104.1 +/- 2.7 mV). In kind it is functional, Canis lupus familiaris.

The test system is the same in assay [8]. Description: Effect on cardiac electrophysiological profile in Mongrel perfused dog heart left ventricular muscle stimulated at basic cycle length of 1000 milliseconds assessed as action potential time duration at 90% of repolarization at 1 uM measured after 25 mins by glass capillary microelectrode based electrophysiology assay (reference value: 212.5 +/- 16.25 milliseconds). In kind it is functional, Canis lupus familiaris.

For assay [9] the test system is unchanged. As to the kind of experiment: Effect on cardiac electrophysiological profile in Mongrel perfused dog heart left ventricular muscle stimulated at basic cycle length of 1000 milliseconds assessed as action potential time duration at 75% of repolarization at 10 uM measured after 25 mins by glass capillary microelectrode based electrophysiology assay (reference value: 199.7 +/- 16.87 milliseconds). In kind it is functional, Canis lupus familiaris.

Assay [10] has the same test system. Description: Effect on cardiac electrophysiological profile in Mongrel perfused dog heart left ventricular muscle stimulated at basic cycle length of 1000 milliseconds assessed as action potential time duration at 50% of repolarization at 1 uM measured after 25 mins by glass capillary microelectrode based electrophysiology assay (reference value: 176 +/- 16.36 milliseconds). The assay is classed as functional, Canis lupus familiaris.

Assay [11] has the same test system. Description: Effect on cardiac electrophysiological profile in Mongrel perfused dog heart left ventricular muscle stimulated at basic cycle length of 1000 milliseconds assessed as action potential time duration at 25% of repolarization at 10 uM measured after 25 mins by glass capillary microelectrode based electrophysiology assay (reference value: 131.7 +/- 13.1 milliseconds). In kind it is functional, Canis lupus familiaris.

The test system is the same in assay [12]. As to the kind of experiment: Effect on cardiac electrophysiological profile in Mongrel perfused dog heart left ventricular muscle stimulated at basic cycle length of 1000 milliseconds assessed as action potential time duration at 10% of repolarization at 10 uM measured after 25 mins by glass capillary microelectrode based electrophysiology assay (reference value: 69.9 +/- 10.84 milliseconds). In kind it is functional, Canis lupus familiaris.

Assay [13] concerns the target T1, Potassium/sodium hyperpolarization-activated cyclic nucleotide-gated channel 4 (Mus musculus, UniProt O70507).
T1 sequence (O70507 whole entry): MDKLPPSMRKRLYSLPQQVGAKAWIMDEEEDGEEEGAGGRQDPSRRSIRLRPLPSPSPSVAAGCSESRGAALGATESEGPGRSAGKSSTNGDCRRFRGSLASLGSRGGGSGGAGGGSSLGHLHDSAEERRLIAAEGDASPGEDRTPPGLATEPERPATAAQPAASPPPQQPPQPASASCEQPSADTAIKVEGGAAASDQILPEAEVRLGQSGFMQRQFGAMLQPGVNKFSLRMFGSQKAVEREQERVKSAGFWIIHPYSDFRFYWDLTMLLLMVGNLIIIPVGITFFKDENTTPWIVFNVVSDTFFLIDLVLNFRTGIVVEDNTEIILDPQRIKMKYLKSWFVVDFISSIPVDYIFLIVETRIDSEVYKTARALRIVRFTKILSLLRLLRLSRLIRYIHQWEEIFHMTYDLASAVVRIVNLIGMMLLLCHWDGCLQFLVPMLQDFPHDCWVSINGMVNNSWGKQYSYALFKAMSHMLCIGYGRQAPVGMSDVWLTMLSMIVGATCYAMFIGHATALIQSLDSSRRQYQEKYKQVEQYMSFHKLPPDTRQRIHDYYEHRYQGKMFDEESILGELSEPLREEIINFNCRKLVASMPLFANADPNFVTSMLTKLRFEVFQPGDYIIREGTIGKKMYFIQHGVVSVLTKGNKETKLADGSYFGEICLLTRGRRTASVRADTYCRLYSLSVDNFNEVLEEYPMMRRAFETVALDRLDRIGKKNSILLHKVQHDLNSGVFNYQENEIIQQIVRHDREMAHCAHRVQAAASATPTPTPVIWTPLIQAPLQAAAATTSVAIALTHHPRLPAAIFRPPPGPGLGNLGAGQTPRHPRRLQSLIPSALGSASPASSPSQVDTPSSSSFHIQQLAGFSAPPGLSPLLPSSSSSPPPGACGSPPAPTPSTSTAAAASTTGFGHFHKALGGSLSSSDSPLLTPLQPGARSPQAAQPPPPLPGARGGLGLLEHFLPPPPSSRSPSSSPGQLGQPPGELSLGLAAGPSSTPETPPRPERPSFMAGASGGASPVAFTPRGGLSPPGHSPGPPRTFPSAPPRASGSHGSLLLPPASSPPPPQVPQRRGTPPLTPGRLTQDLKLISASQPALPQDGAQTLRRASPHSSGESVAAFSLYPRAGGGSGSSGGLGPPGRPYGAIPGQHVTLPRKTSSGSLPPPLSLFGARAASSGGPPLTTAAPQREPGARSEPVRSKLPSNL
Description: Inhibition of HCN4 in C57BL/6J mouse thalamocortical relay neuron assessed as reduction in hyperpolarization current at holding potential of -120 mV by whole-cell patch clamp assay.

Assay [14] is described as follows: Negative chronotropic activity at HCN4 in guinea-pig spontaneously beating isolated atria. To be noted: Cavia porcellus.
The species entered for another assay is Mus musculus. Description: Effect on transient A type potassium channel in C57BL/6J mouse thalamocortical relay neuron assessed as effect on early transient current at 10 uM by whole cell patch clamp assay relative to control.

Consider one compound from ChEMBL document CHEMBL4433219, “EC18 as a Tool To Understand the Role of HCN4 Channels in Mediating Hyperpolarization-Activated Current in Tissues” (ACS Med Chem Lett, 2019).

Activity calls are given as the source filed them. The calls are words filed in the database; no cut-off is given here.

Sequence of Potassium/sodium hyperpolarization-activated cyclic nucleotide-gated channel 1 (O88704 whole entry): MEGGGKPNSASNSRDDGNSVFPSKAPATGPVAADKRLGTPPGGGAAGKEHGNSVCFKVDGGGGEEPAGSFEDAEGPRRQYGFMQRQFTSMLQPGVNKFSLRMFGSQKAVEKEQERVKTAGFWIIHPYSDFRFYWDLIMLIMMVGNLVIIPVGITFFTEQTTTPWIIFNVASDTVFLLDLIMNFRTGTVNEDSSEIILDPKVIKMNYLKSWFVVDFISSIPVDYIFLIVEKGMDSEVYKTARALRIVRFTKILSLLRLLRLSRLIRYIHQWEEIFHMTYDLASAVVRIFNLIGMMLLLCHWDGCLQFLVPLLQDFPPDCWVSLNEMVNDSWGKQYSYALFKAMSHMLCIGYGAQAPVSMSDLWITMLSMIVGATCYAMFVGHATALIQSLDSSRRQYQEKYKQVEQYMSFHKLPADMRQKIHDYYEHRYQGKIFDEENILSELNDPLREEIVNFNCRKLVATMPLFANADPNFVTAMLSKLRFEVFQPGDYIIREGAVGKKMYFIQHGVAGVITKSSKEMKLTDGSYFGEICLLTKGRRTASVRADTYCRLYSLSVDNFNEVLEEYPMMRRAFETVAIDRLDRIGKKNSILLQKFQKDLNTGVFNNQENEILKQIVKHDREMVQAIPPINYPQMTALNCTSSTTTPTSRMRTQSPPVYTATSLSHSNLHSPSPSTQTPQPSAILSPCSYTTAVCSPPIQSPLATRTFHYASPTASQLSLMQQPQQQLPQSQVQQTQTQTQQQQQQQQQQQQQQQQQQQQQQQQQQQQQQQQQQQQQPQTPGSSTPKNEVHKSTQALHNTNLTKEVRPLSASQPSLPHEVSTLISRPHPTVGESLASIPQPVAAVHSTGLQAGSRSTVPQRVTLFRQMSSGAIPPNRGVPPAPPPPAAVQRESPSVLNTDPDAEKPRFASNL

By EC50 is commonly meant the concentration needed to bring the measured effect to its halfway point. A word on the IC50: it is the concentration at which inhibition is half-maximal. Low readings indicate inhibition by little substance, high ones a need for much substance. For the compound `COc1ccc(CCN(C)[C@@H]2CCC[C@H](N3CCc4cc(OC)c(OC)cc4CC3=O)C2)cc1OC` (racemic), the concentration giving a half-maximal response (EC50) in [1] was found to be 21 µM; in assay [13], 11 µM. Besides, the Ratio EC50 in assay [2] and in [3] was 5 in each case. The Time in assay [4] is 4.7 ms; in [8] it was 204.9 ms; in [9], 206 ms; in assay [10], 168.3 ms; in [11], 125.1 ms; in assay [12], 55.7 ms. Moreover, the Activity in assay [5] was -83 mV; in assay [6], 103.1 mV; in assay [7], 102.3 mV. This compound also came in with an IC50 in assay [14] of 9.9 µM. Also, in the assay listed under Mus musculus, the result was inactive.
